# Results taken from US9290447B2, “(20R) and (20S)-24-(p-toluenesulfonyloxy)-25,26,27-trinorvitamin D3 analogs and their uses” (Wisconsin Alumni Research Foundation, priority 2011, dated 2016).
# Assays:
# HL-60 cells = assay: HL-60 differentiation (nitro blue tetrazolium reduction); format: cell-based, human; conditions: FIG. 2
# Method: The study drugs were dissolved in ethanol and the concentrations determined using UV spectrophotometry. Serial dilutions were prepared so that a range of drug concentrations could be tested without changing the final concentration of ethanol (≦0.2%) present in the cell cultures.
# Human promyelocytic leukemia (HL60) cells were grown in RPMI-1640 medium containing 10% fetal bovine serum. The cells were incubated at 37° C. in the presence of 5% CO2.
# HL60 cells were plated at 1.2×10^5 cells/ml. Eighteen hours after plating, cells in duplicate were treated with drug. Four days later, the cells were harvested and a nitro blue tetrazolium reduction assay was performed (Collins et al., 1979; J. Exp. Med. 149:969-974). The percentage of differentiated cells was determined by counting a total of 200 cells and recording the number that contained intracellular black-blue formazan deposits. Verification of differentiation to monocytic cells was determined by measuring phagocytic activity (data not shown).
# [1] = tested on: 24-hydroxylase (24Ohase) gene promoter; assay: In vitro transcription assay (24-hydroxylase promoter luciferase reporter in ROS 17/2.8 bone cells); format: cell-based; conditions: FIG. 3
# Method: Cells were given a range of doses. Sixteen hours alter dosing the cells were harvested and luciferase activities were measured using a luminometer. RLU=relative luciferase units.
# vitamin D-deficient rats [2] = assay: Bone calcium mobilization (serum calcium); format: in vivo, rat; conditions: rats on 0.02% Ca diet, FIG. 9
# Method: (§1) Male, weanling Sprague-Dawley rats were placed on Diet 11 (Suda et al, J. Nutr. 100:1049, 1970) (0.47% Ca)+AEK oil for one week followed by Diet 11 (0.02% Ca)+AEK oil for 3 weeks. The rats were then switched to the same diet containing 0.47% Ca for one week followed by two weeks on the same diet containing 0.02% Ca. Dose administration began during the last week on 0.02% calcium diet. Four consecutive intraperitoneal (ip) doses were given approximately 24 hours apart. Twenty-four hours after the last dose, blood was collected from the severed neck and the concentration of serum calcium determined by atomic absorption spectrometry as a measure of bone calcium mobilization. The first 10 cm of the intestine was also collected for intestinal calcium transport analysis using the everted gut sac method.
# vitamin D-deficient rats [3] = assay: Intestinal calcium transport (everted gut sac method); format: in vivo, rat; conditions: 4 consecutive ip doses, FIG. 10
# Method: as §1
# HL-60 leukemia cells = assay: Cell viability, HL-60 leukemia cells; format: cell-based, human; conditions: four days growth, methylene blue; FIG. 4A/4B
# Method: (§2) Various cell lines were plated, administered a range of drug concentrations one time, allowed to grow for four days and then the number of cells present counted and expressed as a percentage of those present in the vehicle control plates. […] The number of live cells was expressed as a percentage of the total present. Each assay was done in duplicate.
# [4] = tested on: H-82 lung carcinoma cells; assay: Cell viability, H-82 lung carcinoma cells; format: cell-based; conditions: four days growth, methylene blue; FIG. 5A/5B
# Method: as §2
# [5] = molecular target: T1, full-length recombinant rat vitamin D receptor (Rattus norvegicus, UniProt P13053); assay: Vitamin D receptor competitive binding with [3H]-1,25(OH)2D3; conditions: compared to 1α,25-dihydroxyvitamin D3; FIG. 1
# T1 construct: Full-length recombinant rat receptor was expressed in E. coli; histidine tag (C); made in house; host or cells: E. coli BL21 (DE3) Codon Plus RIL
# T1 sequence (P13053 1-423): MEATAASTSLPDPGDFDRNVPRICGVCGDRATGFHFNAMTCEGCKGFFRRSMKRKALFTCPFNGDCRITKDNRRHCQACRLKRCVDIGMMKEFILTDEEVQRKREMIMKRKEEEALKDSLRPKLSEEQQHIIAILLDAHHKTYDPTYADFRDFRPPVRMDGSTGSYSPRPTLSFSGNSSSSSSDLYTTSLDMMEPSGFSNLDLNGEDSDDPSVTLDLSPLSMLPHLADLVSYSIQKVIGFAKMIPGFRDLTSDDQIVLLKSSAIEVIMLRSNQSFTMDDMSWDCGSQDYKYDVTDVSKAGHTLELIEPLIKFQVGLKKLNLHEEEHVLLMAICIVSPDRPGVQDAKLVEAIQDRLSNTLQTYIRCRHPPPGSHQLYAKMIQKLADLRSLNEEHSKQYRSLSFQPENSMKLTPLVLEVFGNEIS
# Method: Full-length recombinant rat receptor was expressed in E. coli BL21 (DE3) Codon Plus RIL cells and purified to homogeneity using two different column chromatography systems. The first system was a nickel affinity resin that utilizes the C-terminal histidine tag on this protein. […] Aliquots of the purified protein were quick frozen in liquid nitrogen and stored at −80° C. until use. For use in binding assays, the protein was diluted in TEDK50 (50 mM Tris, 1.5 mM EDTA, pH7.4, 5 mM DTT, 150 mM KCl) with 0.1% Chaps detergent. The receptor protein and ligand concentration was optimized such that no more than 20% of the added radiolabeled ligand was bound to the receptor.
# Radiolabeled and unlabeled ligands were added to 100 mcl of the diluted protein at a final ethanol concentration of ≦10%, mixed and incubated overnight on ice to reach binding equilibrium. The following day, 100 mcl of hydroxylapatite slurry (50%) was added to each tube and mixed at 10-minute intervals for 30 minutes. The hydroxylapaptite was collected by centrifugation and then washed three times with Tris-EDTA buffer (50 mM Tris, 1.5 mM EDTA, pH 7.4) containing 0.5% Titron X-100. […] Total binding was determined from the tubes containing only radiolabeled ligand.
# [6] = tested on: DU-145 prostate cancer cells; assay: Cell viability, DU-145 prostate cancer cells; format: cell-based; conditions: four days growth, methylene blue; FIG. 6
# Method: as §2
# [7] = tested on: ROS 17/2.8 bone cancer cells; assay: Cell viability, ROS 17/2.8 bone cancer cells; format: cell-based; conditions: four days growth, methylene blue; FIG. 7
# Method: as §2
# [8] = tested on: OVCAR3 ovarian cancer cells; assay: Cell viability, OVCAR3 ovarian cancer cells; format: cell-based; conditions: four days growth, methylene blue; FIG. 8
# Method: as §2
# [9] = Change in body weight of dosed animals; format: in vivo, rat; conditions: various doses; FIG. 11
# Method: as §1
VDR binding activity relative to natural hormone (times less active) [5],SMILES,"EC50 (HL-60 cells; four days after treatment, read-out: EC50, HL-60 cell differentiation)","EC50 ([1]; ROS 17/2.8 cells, 16 h after dosing)",Bone calcium mobilization (serum calcium) (vitamin D-deficient rats [2]; 4 consecutive ip doses),Intestinal calcium transport activity (vitamin D-deficient rats [3]; 260 pmol and 780 pmol doses),Viability of HL-60 leukemia cells (HL-60 leukemia cells),Viability of H-82 lung carcinoma cells [4],HL-60 cell differentiation (in words) (HL-60 cells),Transcriptional activity in bone cells (in words) ([1]; until very high doses are administered),"Bone calcium mobilization (serum calcium) (vitamin D-deficient rats [2]; 35,100 pmol/day for 4 consecutive days, ip)","Intestinal calcium transport activity (vitamin D-deficient rats [3]; 35,100 pmol/rat)",Viability of DU-145 prostate cells [6],Viability of ROS 17/2.8 bone cancer cells [7],Viability of OVCAR3 ovarian cancer cells [8],Body weight throughout the test period [9]
–,"C=C1/C(=C\C=C2/CCC[C@]3(C)[C@@H]([C@H](C)CCCC(C)(C)O)CC[C@@H]23)C[C@@H](O)C[C@@H]1O [1,25(OH)2D3, 1α,25-dihydroxyvitamin D3, reference compound]",2 nM,0.1 nM,significant increases in serum calcium,significant increase in activity,does not have any significant effect on the viability,requires a significantly higher dose,–,–,–,–,–,–,–,–
at least 100 times less active,"C=C1CC[C@H](O)C/C1=C/C=C1\CCC[C@]2(C)[C@@H]([C@H](C)CCCOS(=O)(=O)c3ccc(C)cc3)CC[C@@H]12 [TS-17, (20R)-25,26,27-trinor-24-(p-methylphenylsulfonate)-vitamin D3]",–,–,–,–,kills HL-60 leukemia cells,kills H-82 lung carcinoma cells,does not promote HL60 differentiation,lacks any transcriptional activity,little or no mobilization of bone calcium,little to no activity,does not have any significant effect on the viability,does not have any significant effect on the viability,does not have any significant effect on the viability,substantially maintain their body weight
